Drawing on PubChem BioAssay (NCI), this text covers TGI for 16 compounds.

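Five concentrations, 48 hours, 96-well plates. TGI marks complete inhibition of growth.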

Some test systems named below: SN12C renal; NCI-H23 lung; SR leukemia; SNB-75 CNS; UO-31 renal; HT29 colon; 786-0 renal; OVCAR-5 ovarian; MDA-N; PC-3 prostate; T-47D breast.
Holding throughout (assay): NCI tumour cell line growth inhibition, 48 h

As to `COc1ccc2nc3c(c(NCCCN(C)C)c2c1)CCCC3`, the TGI in the assay with SN12C renal was 47.2 µM; with NCI-H23 lung it was 31.4 µM; in the assay with SR leukemia, 5.77 µM; in the assay with SNB-75 CNS it was 26.9 µM; with UO-31 renal, 39.6 µM; in the assay with HT29 colon, 27.6 µM. The TGI is 28.8 µM in the assay on 786-0 renal and 35.6 µM with OVCAR-5 ovarian.
`O=c1c2ccccc2nc(-c2ccccc2)n1NC(=S)Nc1ccc(Cl)cc1`: the TGI in the assay with SN12C renal, in the assay on NCI-H23 lung, in the assay on SR leukemia, in the assay on SNB-75 CNS, with UO-31 renal and with HT29 colon was over 100 µM throughout. Besides, the TGI in the assay on 786-0 renal and with OVCAR-5 ovarian was over 100 µM in each case.
Take `CN(C)CCNC(=O)c1cccc2cc3cc(O)ccc3nc12`: the TGI is 4.65 µM in the assay with SN12C renal; 3.24 µM in the assay on NCI-H23 lung; 6.31 µM in the assay with SNB-75 CNS; 4.95 µM with HT29 colon; 4.32 µM with OVCAR-5 ovarian.
Regarding `CS(=O)(=O)c1nc(-c2cc3c(c(S(C)(=O)=O)n2)CCC3)cc2c1CCCC2`, the TGI is over 100 µM in the assay on MDA-N; over 100 µM in the assay with SN12C renal; over 100 µM in the assay on PC-3 prostate; over 100 µM in the assay on NCI-H23 lung; 23.4 µM with SNB-75 CNS; over 100 µM in the assay with UO-31 renal. Further, the TGI in the assay on HT29 colon, in the assay on 786-0 renal and in the assay with OVCAR-5 ovarian was over 100 µM each time.
Turning to `Cc1ccc(N(O)C(C)(C)C)cc1`, the TGI with SN12C renal, in the assay on NCI-H23 lung, in the assay on SNB-75 CNS, in the assay on UO-31 renal, in the assay on HT29 colon and in the assay with OVCAR-5 ovarian was over 100 µM in each case.
In the case of `Cc1cc(C)nc(/C(=N\NC(N)=O)C(=O)Nc2nc3ccc(C)cc3s2)c1`, the TGI is over 100 µM with SN12C renal; over 100 µM with NCI-H23 lung; 40.7 µM with SR leukemia; over 100 µM with SNB-75 CNS; over 100 µM in the assay on UO-31 renal; over 100 µM with HT29 colon. In addition, the TGI with 786-0 renal and in the assay with OVCAR-5 ovarian was over 100 µM throughout.
Consider `C[S+](C)CC1OC(n2cnc3c(N)ncnc32)C(O)C1O` (stereo unspecified), for which the TGI in the assay on SN12C renal, in the assay on NCI-H23 lung, in the assay on SNB-75 CNS, in the assay with UO-31 renal, with HT29 colon and in the assay with OVCAR-5 ovarian was over 225 µM each time.
In the case of `CC1(C)C2CCC3(OCCO3)C1C(O)C2` (stereo unspecified), the TGI in the assay with NCI-H23 lung, with SNB-75 CNS, in the assay with UO-31 renal, in the assay on HT29 colon, with 786-0 renal and in the assay with OVCAR-5 ovarian was over 100 µM each time.
Regarding `O=NN(CCF)C(=O)NC1CC2CCC1C2` (stereo unspecified), the TGI in the assay with SN12C renal, in the assay on NCI-H23 lung, with SNB-75 CNS, in the assay on UO-31 renal, in the assay on HT29 colon and in the assay with OVCAR-5 ovarian was over 100 µM in each case.
Take `COc1ccc(C(Cc2ccccc2)C2NC(=S)NC2=O)cc1` (stereo unspecified): the TGI with SN12C renal, with PC-3 prostate, with NCI-H23 lung, in the assay on SR leukemia, with SNB-75 CNS and in the assay on UO-31 renal was over 25 µM each time. In addition, the TGI in the assay on HT29 colon, with 786-0 renal, in the assay with OVCAR-5 ovarian and in the assay with T-47D breast was over 25 µM each time.
As to `COC(=O)CCc1c(Cc2ccc[nH]2)[nH]c(C(=O)OCc2ccccc2)c1C`, the TGI with MDA-N is 34.4 µM; in the assay with SN12C renal, 35.6 µM; in the assay on PC-3 prostate, 60 µM; in the assay with NCI-H23 lung it was 43.9 µM; in the assay on SR leukemia, 66.5 µM; in the assay on HT29 colon, 38.9 µM. Besides, the TGI with 786-0 renal was 31.4 µM; in the assay with OVCAR-5 ovarian, over 100 µM.
As to `COC(=O)C1=C(O)C(C(=O)OC)[C@]2(O)[C@@H](C(=O)OC)[C@H]1C[C@@H](c1ccccc1)[C@@H]2C(=O)OC` (stereo partly specified), the TGI in the assay with MDA-N was 19.1 µM; with SN12C renal it was 32.1 µM; in the assay with NCI-H23 lung, 32.1 µM; with SR leukemia, 24.1 µM; in the assay with SNB-75 CNS, over 100 µM; in the assay with UO-31 renal, 26.6 µM. In addition, the values for the TGI in the assay with HT29 colon, in the assay on OVCAR-5 ovarian and in the assay with T-47D breast were 36.7 µM, 30.9 µM and over 100 µM, respectively.
Consider `COC(=O)c1c(C)cccc1C1CN=NC12Cc1ccc(C)c(C)c1C2=O` (stereo unspecified), for which the TGI in the assay on MDA-N, in the assay with SN12C renal, with NCI-H23 lung, in the assay on SR leukemia, with SNB-75 CNS and in the assay with UO-31 renal was over 100 µM throughout. Further, the TGI in the assay on HT29 colon is over 100 µM; in the assay with 786-0 renal, over 100 µM; with OVCAR-5 ovarian, over 100 µM; in the assay with T-47D breast it was 13.1 µM.
For `CCC(COC(=O)CC[C@@H](NC(=O)C(C)NC(=O)C(C)OC1C(O)C(CO)OC(OCc2ccccc2)C1NC(C)=O)C(N)=O)NC1c2ccccc2Nc2cccc([N+](=O)[O-])c21` (stereo partly specified), the TGI with SN12C renal, with NCI-H23 lung, in the assay with SR leukemia, in the assay with SNB-75 CNS, in the assay on UO-31 renal and in the assay on HT29 colon was over 100 µM each time. In addition, the TGI with 786-0 renal and in the assay on OVCAR-5 ovarian was over 100 µM throughout.
For the compound `COc1ccc2c(c1)OCCc1cn[nH]c1-2`, the TGI in the assay on SN12C renal, in the assay on NCI-H23 lung, with SNB-75 CNS, in the assay with UO-31 renal, with HT29 colon and in the assay on OVCAR-5 ovarian was over 100 µM each time.
On to `COc1cccc(/C(Cl)=C(\C=O)c2cccc(OC)c2)c1`, for which the TGI was 34.7 µM in the assay with SN12C renal; 22.7 µM in the assay with NCI-H23 lung; 39.5 µM in the assay on SR leukemia; 40.5 µM in the assay with SNB-75 CNS; 68.1 µM in the assay with UO-31 renal; 24.9 µM in the assay on HT29 colon. Besides, the TGI in the assay on 786-0 renal and with OVCAR-5 ovarian was 38 µM throughout.
